Experimental data taken from patent publication US10285986B2, “Compounds and anti-tumor NQO1 substrates” (The Board of Trustees of the University of Illinois, priority 2011, dated 2019).
≈ marks a conversion by molar mass, not a printed value. Where two headings read alike, the source gives them in different places. Marks after values point to notes of the source that are not given here.

How the values were obtained:
[1] = Solubility in organic solvents; assay type: physicochemical; settings: for solubility: organic solvent or mixture, thermodynamic from solid
Experimental: The solubility of DNQ derivatives in organic solvents was determined by measuring the amount of a given solvent required to dissolve a known amount of compound. Solvent was added to the compound in 50 μL aliquots and the slurry was sonicated. […] Solubility was assessed in DMSO, dichloromethane, and 33% methanol in dichloromethane (FIGS. 9, 10, and 11, respectively).

[2] = system: MCF-7 cells; experiment: Cytotoxicity to MCF-7 cells with or without 25 μM dicoumarol (sulforhodamine B assay); assay type: cell-based, human
Experimental: The NQO1-dependent cytotoxicity of the first set of derivatives was determined in MCF-7 cells which express high levels of NQO1. Cells were exposed to DNQ for 2 hours in the presence or absence of 25 μM DIC. The media was then removed and cells were washed once with media then fresh media was added and the cells were incubated for 72 hours. Cell death was assessed using the sulforhodamine B assay previously described. […] Substitution off the nitrogen appeared well tolerated (4-14 and 4-15).
The DNQ derivatives synthesized were assayed for their toxicity to MCF-7 cells with or without DIC. The data from these experiments is organized in Table 4.2. […] This tolerance of sterically-demanding substituents corresponds with a flexible and promiscuous NQO1 active site. The poor activity of hydroxyl derivative 4-41 may be a result of either poor binding with the largely hydrophobic NQO1 active site or with an excessively strong substrate-enzyme interaction because of hydrogen bonding.

[3] = target: NQO1 (Homo sapiens, UniProt P15559); experiment: NQO1 enzymatic measurements in vitro; assay type: biochemical; settings: 1 μM substrate
NQO1, sequence (P15559 whole entry): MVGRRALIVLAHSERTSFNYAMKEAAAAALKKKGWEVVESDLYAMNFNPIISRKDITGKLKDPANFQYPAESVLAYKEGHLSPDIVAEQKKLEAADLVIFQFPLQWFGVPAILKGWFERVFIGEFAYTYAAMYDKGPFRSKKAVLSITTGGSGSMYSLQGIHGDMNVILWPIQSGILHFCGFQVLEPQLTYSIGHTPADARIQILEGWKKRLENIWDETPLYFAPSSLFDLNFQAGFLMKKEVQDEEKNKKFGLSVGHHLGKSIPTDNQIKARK
Experimental: As further evidence that the activity of these DNQ derivatives is dependent on their ability to be reduced by NQO1, full enzymatic measurements in vitro were performed. We found a strong correlation between catalytic efficiency of substrates in vitro and their cell culture toxicity. […] This provides strong evidence that the cytotoxicity of DNQ and its derivatives are dependent primarily upon the activity of NQO1 within the cell.

[4] = Aqueous solubility in pH 7.4 PBS by LC-MS; assay type: physicochemical; settings: phosphate buffered saline, pH 7.4, aqueous buffer, thermodynamic from solid, PBS pH 7.4; Table 4.3
Experimental: The aqueous solubility of DNQ at pH 7.4 in phosphate buffered saline (PBS) was measured by LC-MS. DNQ was sonicated for 30 minutes in PBS then undissolved solid was removed by filtration through a 0.45 μm syringe filter and the filtrate was analyzed by LC-MS (λ=275 nm, ESI-TOF in negative mode). The optimal sonication time was determined by sonicating DNQ for 1, 5, 10, and 30 minutes. While the concentration of DNQ in solution increased substantially between 1, 5, and 10 minutes, there was only a minor difference between 10 and 30 minutes. During the 30 minute sonication the water bath warmed to 45° C. (samples were cooled to room temperature before filtration). A calibration curve was generated from 1-100 μM by dissolving DNQ in methanol to a concentration of 500 μM and making dilutions of this stock in 80:20 water:methanol. The calibration curve (measure by UV absorbance) was linear over this range; 1 μM was approximately the limit of detection. […] The solution was very pale yellow.
The aqueous solubility of the compounds was determined by an LC-MS assay as described in the specification above. We applied the calibration curve generated for DNQ to the derivatives under the assumption that the UV profile of the derivatives of DNQ would be similar to that of DNQ.
After sonication and filtration most of the aqueous solutions were colorless. The solutions of DNQ, 4-31, and 4-37 were faintly yellow while 4-8, 4-14 and 4-41 were substantially more colored. The solution of 4-8, 4-14 and 4-41 were diluted 10-fold with PBS prior to LC-MS analysis to ensure that the concentrations fell within the range of the calibration curve.

[5] = Solubility in organic solvents; assay type: physicochemical; settings: organic solvent or mixture, thermodynamic from solid; THF; Table 1
[6] = Homo sapiens, MCF7, 2 h, Table 4.1, 2 h exposure, no DIC, ± s.e., read-out: IC50 vs. MCF-7 cells
[7] = Homo sapiens, MCF7, Table 1, read-out: MCF7 IC50
[8] = Homo sapiens, MCF7, classification in figure legends of FIGS. 7-11, read-out: IC50 ("active" / generally "inactive" compounds)
[9] = Homo sapiens, MCF7, read-out: IC50 vs. MCF-7 cells +25 μM DIC, Table 4.1, +25 μM DIC, ± s.e.
[10] = 2:1 CH2Cl2:MeOH, Table 4.3, read-out: Solubility in 2:1 CH2Cl2:MeOH
[11] = CH2Cl2:MeOH 2:1, Table 1, read-out: CH2Cl2:MeOH 2:1 solubility
[12] = CH2Cl2, Table 1, read-out: CH2Cl2 solubility
[13] = DMSO, Table 1, read-out: DMSO solubility
[14] = Homo sapiens, MCF7, Table 4.2, no DIC, ± s.e., read-out: IC50 vs. MCF-7 cells
[15] = Homo sapiens, MCF7, read-out: IC50 vs. MCF-7 cells +25 μM DIC, Table 4.2, +25 μM DIC, ± s.e.

| SMILES | IC50 [2, 7] [µM] | IC50 [2, 8] [µM] | Fold Protection of MCF7 cells w/ 25 μM dicoumarol ([2]; Table 1) | NQO1 Initial Velocity @ 1 μM [3] | solubility at 30 min [4] [mM] | solubility [5] [mM] | Solubility in CH2Cl2 ([1]; CH2Cl2, Table 4.3) [mM] | Solubility in DMSO ([1]; DMSO, Table 4.3) [mM] | solubility [1, 10] [mM] | solubility [1, 11] [mM] | solubility [1, 12] [mM] | solubility [1, 13] [mM] | IC50 [2, 14] [µM] | IC50 [2, 15] [µM] | Fold protection by DIC ([2]; Table 4.2) | also measured |
| --- | --- | --- | --- | --- | --- | --- | --- | --- | --- | --- | --- | --- | --- | --- | --- | --- |
| Cc1cc(=O)[nH]c2c1C(=O)c1c(C)cc(=O)[nH]c1C2=O [Compound 2-78, reference compound] | – | – | – | – | – | – | – | – | – | – | – | – | – | – | – | solubility in solvents evaluated [1]: insoluble in all solvents evaluated except concentrated acids or bases |
| CCCc1cc(=O)n(C)c2c1C(=O)c1c(C)cc(=O)[nH]c1C2=O [Compound 4-9] | 0.93 | > 0.5 | 2.8 | 600 ± 100 | 0.059 (≈ 18.4 µg/mL) | 4.6 (≈ 1440 µg/mL) | 6.1 (≈ 1910 µg/mL) | 10 (≈ 3120 µg/mL) | 18 (≈ 5620 µg/mL) | 18 (≈ 5620 µg/mL) | 6.1 (≈ 1910 µg/mL) | 10 (≈ 3120 µg/mL) | – | – | – | IC50 [2, 6]: 0.9 ± 0.25 µM; IC50 [2, 9]: 2.6 ± 0.6 µM; Fold protection by DIC ([2]; Table 4.1): 2.8 |
| CCc1cc(=O)[nH]c2c1C(=O)c1c(C)cc(=O)n(C)c1C2=O [Compound 4-11] | – | > 0.5 | – | – | 0.105 (≈ 31.3 µg/mL) | 3.9 (≈ 1160 µg/mL) | 11 (≈ 3280 µg/mL) | 16 (≈ 4770 µg/mL) | 35 (≈ 10400 µg/mL) | 35 (≈ 10400 µg/mL) | 11 (≈ 3280 µg/mL) | 16 (≈ 4770 µg/mL) | – | – | – | IC50 [2, 6]: 0.55 ± 0.06 µM; IC50 [2, 9]: 4.9 ± 0.8 µM; Fold protection by DIC ([2]; Table 4.1): 8.9 |
| CCCc1cc(=O)[nH]c2c1C(=O)c1c(C)cc(=O)n(C)c1C2=O [Compound 4-12] | 3.4 | > 0.5 | 1.6 | 250* | 0.035 (≈ 10.9 µg/mL) | – | 2.0 (≈ 625 µg/mL) | 4.2 (≈ 1310 µg/mL) | 10 (≈ 3120 µg/mL) | 10 (≈ 3120 µg/mL) | 2 (≈ 625 µg/mL) | 4.2 (≈ 1310 µg/mL) | – | – | – | IC50 [2, 6]: 3.4 ± 0.6 µM; IC50 [2, 9]: 5.3 ± 1.2 µM; Fold protection by DIC ([2]; Table 4.1): 1.6 |
| CCCCn1c2c(c(CCC)cc1=O)C(=O)c1c(C)cc(=O)[nH]c1C2=O [Compound 4-26] | 0.77 | > 0.5 | 2.8 | 1300 ± 200 | < 0.005 | 17 (≈ 6020 µg/mL) | 24 (≈ 8510 µg/mL) | 14 (≈ 4960 µg/mL) | 75 (≈ 26600 µg/mL) | 75 (≈ 26600 µg/mL) | 24 (≈ 8510 µg/mL) | 14 (≈ 4960 µg/mL) | 0.77 ± 0.19 | 2.2 ± 0.6 | 2.8 | – |
| CCCCn1c2c(c(C)cc1=O)C(=O)c1c(CCC)cc(=O)[nH]c1C2=O [Compound 4-27] | 6.3 | > 0.5 | 1.1 | 350 ± 10 | < 0.005 | 12 (≈ 4250 µg/mL) | 17 (≈ 6020 µg/mL) | 10 (≈ 3540 µg/mL) | 49 (≈ 17400 µg/mL) | 49 (≈ 17400 µg/mL) | 17 (≈ 6020 µg/mL) | 10 (≈ 3540 µg/mL) | 6.3 ± 1.1 | 6.8 ± 1.6 | 1.1 | – |
| CCCCn1c2c(c(CCC)cc1=O)C(=O)c1c(CCC)cc(=O)[nH]c1C2=O [Compound 4-28] | 36 | > 0.5 | 0.9 | 75 ± 4 | < 0.005 | 17 (≈ 6500 µg/mL) | 35 (≈ 13400 µg/mL) | 7.1 (≈ 2720 µg/mL) | 64 (≈ 24500 µg/mL) | 64 (≈ 24500 µg/mL) | 35 (≈ 13400 µg/mL) | 7.1 (≈ 2720 µg/mL) | 36 ± 11 | 31 ± 10 | 0.9 | – |
| CCc1cc(=O)[nH]c2c1C(=O)c1c(CC)cc(=O)n(C)c1C2=O [Compound 4-29] | 5 | > 0.5 | 1.2 | 250 ± 20 | 0.084 (≈ 26.2 µg/mL) | 6.2 (≈ 1940 µg/mL) | 10 (≈ 3120 µg/mL) | 21 (≈ 6560 µg/mL) | 46 (≈ 14400 µg/mL) | 46 (≈ 14400 µg/mL) | 10 (≈ 3120 µg/mL) | 21 (≈ 6560 µg/mL) | 3.8 ± 1.2 | 4.8 ± 1.1 | 1.3 | – |
| Cc1cc(=O)[nH]c2c1C(=O)c1c(C)cc(=O)n(C3CCCCCCC3)c1C2=O [Compound 4-39] | – | > 0.5 | – | – | 0.024 (≈ 9.13 µg/mL) | – | – | – | 46 (≈ 17500 µg/mL) | – | – | – | 0.83 ± 0.07 | 4.1 ± 0.8 | 3.8 | solubility ([1]; CH2Cl2, Table 4.3, read-out: Solubility in CH2Cl2): 120 mM (≈ 45700 µg/mL); solubility ([1]; DMSO, Table 4.3, read-out: Solubility in DMSO): 71 mM (≈ 27000 µg/mL) |
| CO[C@@]12[C@H](COC(N)=O)C3=C(C(=O)C(C)=C(N)C3=O)N1C[C@@H]1N[C@@H]12 [MMC, mitomycin C, reference compound] | – | – | 1 | – | – | – | – | – | – | – | – | – | – | – | – | IC50 ([2]; Table 1, read-out: MCF7 IC50): 14 µM |
| CC1=C(N2CC2)C(=O)C(CO)=C(N2CC2)C1=O [RH1, reference compound] | – | – | 0.85 | – | – | – | – | – | – | – | – | – | – | – | – | IC50 ([2]; Table 1, read-out: MCF7 IC50): 0.21 µM |
| Cc1cc(=O)n(C)c2c1C(=O)c1c(C)cc(=O)n(C)c1C2=O [SCH, reference compound] | 3.9 | – | 3.5 | 32 ± 2 | – | 3.7 (≈ 1100 µg/mL) | – | – | – | 60 (≈ 17900 µg/mL) | 25 (≈ 7460 µg/mL) | 15 (≈ 4470 µg/mL) | – | – | – | – |
